ChEMBL document CHEMBL5226295, “Targeting Bromodomain and Extraterminal Proteins for Drug Discovery: From Current Progress to Technological Development” (J Med Chem, 2021)
Values belong to the molecule of their own block, whether it stands above or below them.

How the values were obtained:
[1] = target: Poly [ADP-ribose] polymerase 1 (Homo sapiens) (UniProt P09874); test: Inhibition of PARP1 (unknown origin) using NAD+ as substrate incubated for 60 mins by ELISA
[2] = target: T1, Bromodomain-containing protein 4 (Homo sapiens, UniProt O60885); test: Inhibition of recombinant human BRD4 BD1 measured after 2 hrs by TR-FRET assay
[3] = target: T1, Bromodomain-containing protein 4; test: Inhibition of recombinant human BRD4 BD2 measured after 2 hrs by TR-FRET assay
[4] = target: T1, Bromodomain-containing protein 4; test: Inhibition of poly His-tagged BRD4 BD1 (unknown origin) ([…] residues) by TR-FRET assay
[5] = target: T1, Bromodomain-containing protein 4; test: Inhibition of poly His-tagged BRD4 BD2 (unknown origin) (348 to 455 residues) by TR-FRET assay
[6] = Antiproliferative activity against human Triple-negative breast cancer cells assessed as cell growth inhibition incubated for 4 days by CellTiter Glo assay; assay type: functional, cell-based; conditions: 96 h
[7] = target: T1, Bromodomain-containing protein 4; test: Inhibition of poly His-tagged BRD4 BD1 (unknown origin) ([…] residues) by BROMOscan assay
[8] = target: T1, Bromodomain-containing protein 4; test: Inhibition of poly His-tagged BRD4 BD2 (unknown origin) (348 to 455 residues) by BROMOscan assay
[9] = target: von Hippel-Lindau disease tumor suppressor/Bromodomain-containing protein 4 (Homo sapiens, UniProt O60885+P40337); test: Protac activity at BRD4/VHL E3 ligase in human SU-DHL-4 cells assessed as induction of BRD4 degradation incubated for 14 hrs by immunoblot analysis; assay type: cell-based
Sequence of von Hippel-Lindau disease tumor suppressor/Bromodomain-containing protein 4 (P40337 whole entry, looked up, other chains not shown): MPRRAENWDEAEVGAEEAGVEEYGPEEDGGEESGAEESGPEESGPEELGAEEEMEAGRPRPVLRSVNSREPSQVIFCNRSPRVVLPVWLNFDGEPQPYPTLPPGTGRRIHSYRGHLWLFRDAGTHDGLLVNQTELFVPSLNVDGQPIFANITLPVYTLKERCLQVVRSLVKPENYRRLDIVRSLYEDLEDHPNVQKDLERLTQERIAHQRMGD

[10] = target: Protein cereblon/Bromodomain-containing protein 4 (Homo sapiens, UniProt O60885+Q96SW2); test: Protac activity at CRBN/BRD4 in human SUM149PT assessed as induction of BRD4 degradation incubated for 18 hrs by immunoblot analysis; assay type: cell-based
Sequence of Protein cereblon/Bromodomain-containing protein 4 (Q96SW2 whole entry, looked up, other chains not shown): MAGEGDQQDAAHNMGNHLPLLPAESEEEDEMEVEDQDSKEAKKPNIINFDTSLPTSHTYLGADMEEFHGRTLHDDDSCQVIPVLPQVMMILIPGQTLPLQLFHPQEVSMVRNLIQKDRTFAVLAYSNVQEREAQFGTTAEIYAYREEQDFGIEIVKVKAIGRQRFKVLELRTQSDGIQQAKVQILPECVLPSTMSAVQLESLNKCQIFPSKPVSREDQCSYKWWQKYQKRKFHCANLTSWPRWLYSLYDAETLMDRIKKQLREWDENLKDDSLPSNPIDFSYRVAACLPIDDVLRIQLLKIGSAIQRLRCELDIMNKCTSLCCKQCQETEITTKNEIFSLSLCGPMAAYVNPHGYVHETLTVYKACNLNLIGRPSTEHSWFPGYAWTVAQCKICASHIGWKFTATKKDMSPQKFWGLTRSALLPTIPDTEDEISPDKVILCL

Homo sapiens = species on record: Homo sapiens; test: Selectivity for BRD4 BD1 (unknown origin) over BRD4 BD2 (unknown origin) assessed as fold change
[11] = target: T1, Bromodomain-containing protein 4; test: Inhibition of GST-tagged BRD4 BD1 (unknown origin) using H4(1 to 21 residues) biotinylated peptide as substrate at 10 uM incubated for 3 hrs by HTFR assay
Histone deacetylase 3 = Histone deacetylase 3 (Homo sapiens, UniProt O15379); test: Inhibition of recombinant human HDAC3 using Boc-Lys(Ac)-AMC as substrate preincubated for 15 mins followed by substrate addition and measured after 60 mins by fluorescence based assay
Sequence of Histone deacetylase 3 (O15379 whole entry): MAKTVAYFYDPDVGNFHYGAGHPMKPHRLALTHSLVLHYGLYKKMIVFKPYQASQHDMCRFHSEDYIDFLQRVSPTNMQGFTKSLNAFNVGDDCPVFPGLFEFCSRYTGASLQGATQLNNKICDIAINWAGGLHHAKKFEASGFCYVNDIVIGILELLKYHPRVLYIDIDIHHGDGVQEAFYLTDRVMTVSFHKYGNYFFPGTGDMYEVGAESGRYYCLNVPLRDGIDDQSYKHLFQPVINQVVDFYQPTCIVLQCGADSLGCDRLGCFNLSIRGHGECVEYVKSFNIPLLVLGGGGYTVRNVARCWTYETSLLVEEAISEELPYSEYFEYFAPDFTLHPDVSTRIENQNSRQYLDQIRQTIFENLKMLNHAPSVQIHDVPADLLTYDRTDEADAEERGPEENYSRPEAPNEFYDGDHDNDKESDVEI

[12] = target: T1, Bromodomain-containing protein 4; test: Binding affinity to BRD4 BD1 (unknown origin) assessed as dissociation constant by ITC analysis
[13] = target: T1, Bromodomain-containing protein 4; test: Binding affinity to BRD4 BD2 (unknown origin) assessed as dissociation constant by ITC analysis

Sequence of Poly [ADP-ribose] polymerase 1 (Homo sapiens) (P09874 whole entry): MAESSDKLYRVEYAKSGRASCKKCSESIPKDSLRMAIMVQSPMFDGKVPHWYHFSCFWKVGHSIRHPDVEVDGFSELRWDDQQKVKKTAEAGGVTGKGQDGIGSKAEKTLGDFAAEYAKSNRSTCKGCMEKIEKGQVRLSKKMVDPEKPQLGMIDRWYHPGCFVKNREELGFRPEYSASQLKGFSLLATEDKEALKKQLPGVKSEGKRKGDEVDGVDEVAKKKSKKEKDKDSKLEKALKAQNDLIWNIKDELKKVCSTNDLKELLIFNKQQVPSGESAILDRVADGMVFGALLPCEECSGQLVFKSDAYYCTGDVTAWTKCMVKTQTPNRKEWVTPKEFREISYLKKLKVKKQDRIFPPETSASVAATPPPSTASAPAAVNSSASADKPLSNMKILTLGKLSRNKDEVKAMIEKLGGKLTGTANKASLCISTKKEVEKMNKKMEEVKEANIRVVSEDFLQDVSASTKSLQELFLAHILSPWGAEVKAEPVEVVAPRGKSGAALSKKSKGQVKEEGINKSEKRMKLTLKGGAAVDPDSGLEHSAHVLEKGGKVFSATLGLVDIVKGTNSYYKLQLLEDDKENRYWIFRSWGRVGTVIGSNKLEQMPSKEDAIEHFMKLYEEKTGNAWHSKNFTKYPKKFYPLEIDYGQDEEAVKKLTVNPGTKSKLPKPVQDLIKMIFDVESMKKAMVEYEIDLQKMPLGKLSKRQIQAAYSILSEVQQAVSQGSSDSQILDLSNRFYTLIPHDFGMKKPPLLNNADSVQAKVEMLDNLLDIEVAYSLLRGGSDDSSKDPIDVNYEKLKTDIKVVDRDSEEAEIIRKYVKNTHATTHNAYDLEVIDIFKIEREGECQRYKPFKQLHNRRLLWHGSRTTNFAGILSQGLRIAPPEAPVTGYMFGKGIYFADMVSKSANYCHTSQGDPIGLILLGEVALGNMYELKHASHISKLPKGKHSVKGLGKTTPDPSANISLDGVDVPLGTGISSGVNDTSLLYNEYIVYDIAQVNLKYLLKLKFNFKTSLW

SMILES: CC(=O)N1c2ccc(-c3cc[nH]n3)cc2[C@H](Nc2ccc(C#N)cc2)C[C@@H]1C
Kd [4]: 301 nM | Kd [5]: 2 nM

SMILES: CCn1nc(C2CC2)cc1Nc1nc(C(=O)NCCCOCCOCCOCCCNc2cccc3c2C(=O)N(C2CCC(=O)NC2=O)C3=O)nc2[nH]c3cc(-c4c(C)noc4C)c(OC)cc3c12 (configuration not stated)
IC50 [6]: < 10 nM

SMILES: COC(=O)c1ccc(N[C@@H]2C[C@H](C)N(C(C)=O)c3ccc(-c4cccc(NC(C)=O)c4)cc32)cc1
IC50 [7]: 27 nM | IC50 [8]: 0.42 nM

SMILES: CC(=O)Nc1c(F)cc(C(=O)N[C@H]2CC[C@H](O)CC2)cc1O[C@@H](C)c1ccccc1
Selectivity ratio (Homo sapiens): > 300

SMILES: COCc1nc2cnc3cc(-c4c(C)noc4C)c(OC[C@H]4CCNC4)cc3c2n1[C@H](C)c1ccccc1
Selectivity ratio (Homo sapiens): > 130

SMILES: CC(=O)N[C@H](CSCCCCCCNC(=O)C[C@H]1N=C(c2ccc(Cl)cc2)c2c(sc(C)c2C)-n2c(C)nnc21)C(=O)N1C[C@@H](O)C[C@@H]1C(=O)NCc1ccc(-c2scnc2C)cc1
Kd [12]: 44 nM

SMILES: CC1=C(C)C2C(c3ccc(Cl)cc3)N[C@@](C)(CC(=O)NCCOCCOCCOCC(=O)N[C@H](C(=O)N3C[C@H](O)C[C@H]3C(=O)NCc3ccc(-c4scnc4C)cc3)C(C)(C)C)c3nnc(C)n3C2S1 (some centres not stated)
Kd [12]: 382 nM | Kd [13]: 120 nM

Next, values leading:

inhibition [1]: < 60% | IC50 [2]: 440 nM | IC50 [3]: 379 nM
SMILES: COc1cc(OC)c2c(=O)[nH]c(-c3ccc(OCCOc4ccccc4C(N)=O)cc3)nc2c1

DC50 [9]: 10800 nM
SMILES: Cc1sc2c(c1C)C(c1ccc(Cl)cc1)=N[C@@H](CC(=O)NCCOCCOCCNC(=O)c1cccc(S(=O)(=O)Nc3ccc(C)c4c(C#N)c[nH]c34)c1)c1nnc(C)n1-2

EC50 [10]: 430 nM
SMILES: Cc1sc2c(c1C)C(c1ccc(Cl)cc1)=N[C@@H](CC(=O)NCCCCNC(=O)COc1cccc3c1C(=O)N(C1CCC(=O)NC1=O)C3O)c1nnc(C)n1-2 (some centres not stated)

inhibition [11]: 88% | IC50 (Histone deacetylase 3): 5 nM
SMILES: Cc1noc(C)c1-c1ccc2c(c1)C(Cc1ccc(F)cc1)CN2CCCCCCC(=O)NO (configuration not stated)
